Consider one molecule from paper PMC6269737, “Effect of Honokiol on Cytochrome P450 and UDP-Glucuronosyltransferase Enzyme Activities in Human Liver Microsomes” (Molecules, 2013).

Common to all, as to assay type: in vitro ADME
One data set addresses T1, UGT2B7 (Homo sapiens, UniProt P16662).
T1 sequence (P16662 24-529): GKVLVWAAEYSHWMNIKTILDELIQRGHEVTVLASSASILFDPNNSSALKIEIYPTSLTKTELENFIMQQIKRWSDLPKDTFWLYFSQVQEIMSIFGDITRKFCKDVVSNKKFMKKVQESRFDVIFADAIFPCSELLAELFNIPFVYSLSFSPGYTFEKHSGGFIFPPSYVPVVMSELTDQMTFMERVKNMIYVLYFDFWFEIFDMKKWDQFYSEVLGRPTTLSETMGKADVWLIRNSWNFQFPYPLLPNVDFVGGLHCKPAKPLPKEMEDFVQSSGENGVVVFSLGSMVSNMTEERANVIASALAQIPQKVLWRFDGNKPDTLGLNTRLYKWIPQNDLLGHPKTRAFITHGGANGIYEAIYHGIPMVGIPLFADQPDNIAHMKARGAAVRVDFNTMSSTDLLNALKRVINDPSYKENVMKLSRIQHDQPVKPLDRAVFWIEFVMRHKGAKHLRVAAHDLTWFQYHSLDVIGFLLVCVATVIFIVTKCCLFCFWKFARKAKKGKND
The experiment in a line: UGT2B7-catalyzed azidothymidine glucuronidation inhibition in pooled human liver microsomes. To be noted: 100 μM azidothymidine, pooled HLM (H161). How it is done:
(§1) The inhibitory potency (IC50 value) of honokiol on UGT1A1-catalyzed 17β-estradiol 3-glucuronidation, UGT1A4-catalyzed trifluoperazine glucuronidation, UGT1A9-catalyzed propofol glucuronidation, and UGT2B7-catalyzed azidothymidine glucuronidation activities was determined in pooled human liver microsomes by LC-MS/MS [48]. […] Reactions were initiated by the addition of UDPGA (final concentration, 5 mM), and incubations were carried out at 37 °C in a shaking water bath for 30 min. Reactions were terminated by adding 100 μL of ice-cold methanol containing an internal standard (500 ng/mL ezetimibe for 17β-estradiol 3-glucuronide and propofol glucuronide; 30 ng/mL meloxicam for trifluoperazine glucuronide and azidothymidine glucuronide). The incubation mixtures were then centrifuged at 13,000 × g for 4 min, followed by dilution of 30 μL of the supernatant with 70 μL of water. An aliquot (5 μL) was injected onto the LC-MS/MS. All incubations were performed in triplicate and the mean values were used. Glucuronides produced from UGT isoform-specific substrates were determined by LC-MS/MS [49].
(§2) The apparent kinetic parameters for inhibitory potential (Ki values) were estimated from the fitted curves using Enzyme Kinetics Ver. 1.1 software (Systat Software Inc.).

A further data set addresses T2, UGT1A4 (Homo sapiens, UniProt P22310).
T2 sequence (P22310 29-534): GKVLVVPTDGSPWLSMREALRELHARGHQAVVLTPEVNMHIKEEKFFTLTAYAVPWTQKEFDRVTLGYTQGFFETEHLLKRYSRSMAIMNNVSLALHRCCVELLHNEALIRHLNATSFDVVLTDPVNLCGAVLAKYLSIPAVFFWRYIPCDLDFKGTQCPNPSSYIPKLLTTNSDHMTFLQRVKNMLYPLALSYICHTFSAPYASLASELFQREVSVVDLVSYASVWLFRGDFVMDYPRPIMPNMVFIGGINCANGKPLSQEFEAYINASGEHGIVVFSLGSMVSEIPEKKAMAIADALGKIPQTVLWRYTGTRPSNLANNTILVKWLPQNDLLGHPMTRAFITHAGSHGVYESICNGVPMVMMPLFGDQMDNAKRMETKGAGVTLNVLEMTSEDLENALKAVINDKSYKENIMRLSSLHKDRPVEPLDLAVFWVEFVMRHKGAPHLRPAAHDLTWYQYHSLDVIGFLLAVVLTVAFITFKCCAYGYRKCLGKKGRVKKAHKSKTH
The experiment in a line: UGT1A4-catalyzed trifluoperazine N-glucuronidation inhibition in pooled human liver microsomes. Particulars: 5 μM trifluoperazine, pooled HLM (H161). How it is done: as §1, §2

In a further data set the target is T3, UGT1A9 (Homo sapiens, UniProt O60656).
T3 sequence (O60656 26-530): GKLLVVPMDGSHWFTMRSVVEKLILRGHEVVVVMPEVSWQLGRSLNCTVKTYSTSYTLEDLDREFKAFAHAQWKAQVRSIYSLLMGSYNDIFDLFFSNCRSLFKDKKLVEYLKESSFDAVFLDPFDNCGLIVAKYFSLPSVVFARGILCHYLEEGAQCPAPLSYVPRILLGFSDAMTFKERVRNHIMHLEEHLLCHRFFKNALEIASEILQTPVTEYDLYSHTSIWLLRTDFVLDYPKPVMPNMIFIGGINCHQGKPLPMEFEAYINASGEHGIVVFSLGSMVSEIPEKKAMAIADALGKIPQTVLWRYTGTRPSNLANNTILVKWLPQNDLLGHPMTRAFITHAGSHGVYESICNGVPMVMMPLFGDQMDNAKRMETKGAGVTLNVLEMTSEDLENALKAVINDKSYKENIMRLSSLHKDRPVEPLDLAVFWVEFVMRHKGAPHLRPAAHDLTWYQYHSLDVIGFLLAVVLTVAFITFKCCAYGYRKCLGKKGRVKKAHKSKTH
The experiment in a line: UGT1A9-catalyzed propofol glucuronidation inhibition in pooled human liver microsomes. To be noted: pooled HLM (H161). The protocol:
as §1
The incubation mixtures were then centrifuged at 13,000 × g for 4 min, after which 30 μL of the supernatant was diluted with 70 μL of water. Aliquots (5 μL) were then analyzed by LC-MS/MS.
as §2

As to `C=CCc1ccc(O)c(-c2ccc(O)c(CC=C)c2)c1` [honokiol, 2-(4-hydroxy-3-prop-2-enyl-phenyl)-4-prop-2-enyl-phenol], the IC50 was determined as 36400 nM against UGT2B7; 158000 nM on UGT1A4; 980 nM at UGT1A9 (propofol glucuronidation, 10 μM propofol). The molecule further came in with a Ki on UGT1A9 (Propofol glucuronidation, 5–40 μM propofol) of 300 nM. In addition, the Inhibition mode result at UGT1A9 (Propofol glucuronidation) was “competitive”. Also, the IC50 at 30 min on UGT1A9 (human, pooled human liver microsomes, pH 7.4, probe propofol (10 μM), propofol glucuronidation, 10 μM propofol) stood at 960 nM.
